This is an account of results in patent US8901074B2, “Methods of treating autoimmune diseases of the central nervous system (CNS) and neurodegenerative diseases” (Ramot at Tel-Aviv University, priority 2010, dated 2014).

Where no end group is shown, it is not given here.

The nature of data set [1]: Toxicity monitoring (body weight, eating habits, tail tone, mobility) in APP mice. Type of data set: in vivo. The settings on record: 1.07 μg/mouse every other day for 4 months. The protocol: 8-week-old APP/PSI mice were used as previously described (Oakley et al 2006, J Neurosci 26: 10129-10140). Mice were treated with either ADT21 (1.07 μg/mouse) or PBS every other day for 4 months.
Contextual fear conditioning was tested as described previously (Carlos A. et al., 2005) Mice were placed within the conditioning chamber (Coulbourn Instruments, Allentown, Pa.) (7″W×7″D×12″H) for 3 min before the onset of the unconditioned stimulus (US; footshock; 1 s/1 mA) through the cage grid floor (Model H10-11M-TC-SF) from a Coulbourn Instruments shocker (Model H13-15). Activation was detected via a camera above the cage (ACT-VP-01) with a special algorithm for motion detection, to allow them to develop a representation of the context via exploration. After the shock, mice were left in the chamber for 2 min (immediate freezing) and returned to their home cages. 24 hours after the training session, the mice were again placed in the chamber and tested for 4 min without any footshocks. The chamber was isolated in a quiet environment using the noise sealed box (H10-24T Coulbourn Instruments). Freezing response was scored by using the FreezeFrame automated system (Coulbourn Instruments). Furthermore, mice were daily monitored for body weight, eating habits, tail tone and mobility.

The target of data set [2] is T1, insulin degrading enzyme (IDE) (Homo sapiens, UniProt P14735).
T1 sequence (P14735 1-1019): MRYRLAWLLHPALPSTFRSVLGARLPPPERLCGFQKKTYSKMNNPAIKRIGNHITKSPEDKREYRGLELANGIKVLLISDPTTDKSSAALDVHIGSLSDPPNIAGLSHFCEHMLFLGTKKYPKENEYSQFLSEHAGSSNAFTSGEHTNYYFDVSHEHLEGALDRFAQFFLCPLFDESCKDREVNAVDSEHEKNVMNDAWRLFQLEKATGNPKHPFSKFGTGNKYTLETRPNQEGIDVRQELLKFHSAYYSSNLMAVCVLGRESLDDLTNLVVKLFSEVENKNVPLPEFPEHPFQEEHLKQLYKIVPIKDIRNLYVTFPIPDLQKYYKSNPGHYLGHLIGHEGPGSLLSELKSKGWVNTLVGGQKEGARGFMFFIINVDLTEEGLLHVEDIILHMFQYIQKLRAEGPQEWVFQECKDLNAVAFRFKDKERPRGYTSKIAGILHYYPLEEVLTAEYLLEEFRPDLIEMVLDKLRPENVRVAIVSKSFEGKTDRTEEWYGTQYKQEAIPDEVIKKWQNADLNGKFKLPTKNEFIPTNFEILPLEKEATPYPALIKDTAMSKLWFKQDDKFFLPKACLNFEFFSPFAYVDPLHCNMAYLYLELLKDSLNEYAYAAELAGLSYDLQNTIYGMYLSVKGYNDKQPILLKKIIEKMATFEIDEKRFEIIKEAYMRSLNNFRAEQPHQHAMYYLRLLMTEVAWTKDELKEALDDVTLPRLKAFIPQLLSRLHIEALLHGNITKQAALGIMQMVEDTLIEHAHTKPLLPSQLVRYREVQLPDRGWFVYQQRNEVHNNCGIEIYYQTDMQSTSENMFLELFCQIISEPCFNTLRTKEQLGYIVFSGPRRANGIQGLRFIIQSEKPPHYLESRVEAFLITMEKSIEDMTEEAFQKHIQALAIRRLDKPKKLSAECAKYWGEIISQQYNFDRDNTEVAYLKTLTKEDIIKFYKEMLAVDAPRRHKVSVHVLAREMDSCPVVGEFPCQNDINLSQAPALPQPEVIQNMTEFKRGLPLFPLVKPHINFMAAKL
The data set is described as follows: IDE enzymatic activity inhibition. Type of data set: biochemical. The protocol: The IDE inhibitor of the present teachings specifically down-regulates the enzymatic activity of IDE. For instance, the IC50 of IDE is in the range of 10-200 nM as assayed for ADT-21. According to exemplary embodiments, the IDE inhibitor of the present invention is capable of down-regulating by at least 5%, at least 10%, at least 15%, at least 20%, at least 30%, at least 40%, at least 50%, at least 60%, at least 70%, at least 80%, at least 90% or at least 100% the enzymatic activity of IDE.
Any method known in the art for measuring IDE activity may be used to assess down-regulation in IDE. For example, one method which may be used comprises the use of an Insulysin/IDE Immunocapture Activity Assay Kit (available e.g. from InnoZyme™, Calbiochem). Using this kit ELISA plates are first coated with the target enzyme (i.e. IDE) and then the plates are incubated with a substrate (e.g. insulin). The enzymatic activity is measured in comparison to wells without the substrate using for example a FRET substrate, Mca-GGFLRKHGQ-EDDnp (SEQ ID NO: 79). Cleavage of the scissile amide bond between R and K releases the fluorophore from the quenching molecule, Dnp, resulting in an increase in fluorescence. The increase in fluorescence is measured using an excitation wavelength of 320 nm and an emission wavelength of 405 nm.

Take ITNPGSGGSSVLRYDDFHTD [ADT21]: the “changes in behavior indicating toxicity (body weight, eating habits, tail tone, mobility)” value in data set [1] was “no changes in their behavior”. Further, the concentration for half-maximal inhibition (IC50) in data set [2] lay in the range of 10 to 200 nM.
